# Test results as given in patent US20110195924A1, “Methods of Inhibiting the Interaction Between S100P and the Receptor for Advanced Glycation End-Products” (priority 2008, published 2011).
# Assays:
# Panc-1 cells = assay: Panc-1 matrigel invasion assay; type: cell-based
# Description: FIGS. 2A-2D show the effect of cromolyn on pancreatic cancer cell invasion. Panc-1 and BxPC-3 cells were plated in Bio-coat matrigel and control chambers and cultured in serum-free culture media. After 24 hours non-invaded cells in the upper chamber were removed, and cells that invaded onto the lower surface of the membrane were counted from five adjacent fields. […] Data are expressed as the percent invasion through the matrigel matrix and membrane relative to migration through the control membrane. Means and 95% confidence intervals from three independent experiments performed in triplicate are shown. Two-tailed two-sample (unpaired) Student's t-tests were used to determine P values.
# Panc-1 and BxPC-3 cells were seeded in BIOCOAT matrigel invasion chambers and in control chambers without matrigel (Becton-Dickinson, Bedford, Mass.) according to the manufacturer's protocol. Panc-1 cells were seeded with S100P (100 nM) with or without cromolyn (100 μM), and BxPC-3 cells were seeded with or without cromolyn (1-100 μM). Briefly, 2.0×10^5 cells in 300 μL top solution (serum-free media) were added to each chamber and allowed to invade matrigel for 24 hours at 37° C. in a 5% CO2 atmosphere. The non-invading cells on the upper surface of membrane were removed from the chambers with a cotton swab, and the invading cells on the lower surface of the membrane were fixed and stained using a Diff-Quick stain kit (Becton Dickinson, Bedford, Mass.). After two washes with water, the chambers were allowed to air dry. The numbers of invading cells in five adjacent microscope fields per membrane were counted at 20× magnification to obtain the average number of cells per field. Data are expressed as the percent invasion through the matrigel matrix and membrane relative to the migration through the control membrane. The assays were performed three times.
# NFκB promoter activity = assay: NFκB luciferase activity in vivo, orthotopic BxPC-3 tumors; set-up: species or system mice
# Description: FIGS. 3A, 3B, and 3C show the effect of cromolyn on S100P stimulated NFκB promoter activity in pancreatic cancer cells in vitro and in vivo. Panc-1 and BxPC-3 pancreatic cancer cell lines stably expressing an NFκB luciferase reporter were examined for the effects of S100P and cromolyn. […] Means and 95% confidence intervals are shown for three independent experiments performed in triplicate. *, P=0.022, †, P<0.001, and P<0.001 versus control; #, P=0.005 versus 100 nM S100P alone. […] Means and 95% confidence intervals are shown for three independent experiments performed in triplicate. *, P=0.003, †, P<0.001 versus control. […] After 1 week, tumor growth was assessed and NFκB activity was analyzed using an IVIS system (Xenogen Corp., Alameda, Calif.) after injecting mice with D-luciferin (150 mg per kg body weight) (0 time point). The mice were treated with cromolyn (5 mg per kg body weight by intraperitoneal injection), and NFκB luciferase activity was analyzed again at 24 and 48 hours. *, P=0.005 versus control. Means and 95% confidence intervals are shown for two independent experiments (n=4 mice per group). Two-tailed two-sample (unpaired for in vitro and paired for in vivo studies) Student's t-tests were used to determine P values. To measure NFκB promoter activity in vivo, BxPC-3 cells (50,000/50 μL) stably expressing a Lenti-NFkB-luc reporter were transplanted orthotopically into the pancreas of 4-week-old male CB17 scid mice (n=4 mice per experiment). After 1 week mice were injected with D-luciferin (150 mg per kg body weight, i.p.), and basal NFκB activity was determined using the IVIS system. Subsequently, mice were injected with cromolyn (5 mg per kg body weight, i.p.), and NFκB luciferase activity was re-analyzed after 24 and 48 hours. These experiments were performed three times. To determine whether cromolyn treatment could also reduce NFκB activity in vivo, NFκB activity of BxPC-3 cells stably expressing an NFκB luciferase reporter construct that had been transplanted orthotopically into the pancreas of […] (n=4) was examined. After 1 week, NFκB luciferase activity was determined before (0 time point) and at 24 and 48 hours after a single dose of cromolyn (5 mg per kg body weight by intraperitoneal [i.p.] injection). Cromolyn administration reduced basal NFκB activity by at least 80% 24 hours after injection (0 h, mean=9.9×10^6 versus 24 h, mean=1.3×10^6 photons/sec, difference=8.6×10^6 photons/sec, 95% CI=3.1×10^6 to 1.4×10^7 photons/sec; P=0.005, FIG. 3C).
# MPanc-96 cells = assay: MPanc-96 cell apoptosis by flow cytometry, alone or with gemcitabine; type: cell-based, Human; details: alone and in conjunction with gemcitabine 10 μM; 100 and 1000 nM; 72 hours
# Description: FIG. 11 compares the effects of cromolyn and C5 alone and in combination with gemcitabine on MPanc-96 cell apoptosis. MPanc-96 cells were treated with cromolyn or C5 (100 and 1000 nM) with (+) or without (−) gemcitabine (10 μM). Apoptosis was analyzed after 72 hours by flow cytometry.
smiles,measurement,setting,value
"O=C(O)c1cc(=O)c2c(OCC(O)COc3cccc4oc(C(=O)O)cc(=O)c34)cccc2o1 [cromolyn, disodium 1,3-bis[(2′-carboxylatochromon-5′-yl)oxy]-2-hydroxypropane]",basal cell invasion,"Panc-1 cells; Panc-1, no S100P",did not reduce
same,"cells invaded, mean","Panc-1 cells; Panc-1, S100P 100 nM + cromolyn 100 μM, 24 hours",9.4%
same,"cells invaded, difference S100P versus S100P+cromolyn","Panc-1 cells; Panc-1, S100P 100 nM, cromolyn 100 μM, 24 hours",48.6%
same,"NFκB luciferase activity, difference 0 h versus 24 h","NFκB promoter activity; cromolyn 5 mg per kg i.p., 24 h",8.6×10^6 photons/sec
same,"NFκB luciferase activity, mean","NFκB promoter activity; cromolyn 5 mg per kg i.p., 24 h, 0 h mean 9.9×10^6",1.3×10^6 photons/sec
same,NFκB activity,"NFκB promoter activity; cromolyn 5 mg per kg i.p., 48 hours after injection",returned to control levels
same,reduction of basal NFκB activity,"NFκB promoter activity; single dose cromolyn 5 mg per kg i.p., 24 hours after injection",at least 80%
same,MPanc-96 cell viability,MPanc-96 cells,inhibit
